Measurements published in patent US10683329B2, “Dual-site BACE1 inhibitors” (priority 2014, dated 2020).
Where a SMILES comes first, the peptide text is derived from it. [ ]: non-standard residue; d: D form. The star is where a group is joined. Succinyl(4-O-cholesteryl) = CC(C)CCC[C@@H](C)[C@H]1CC[C@H]2[C@@H]3CC=C4C[C@@H](OC(=O)CCC(=O)*)CC[C@]4(C)[C@H]3CC[C@]12C; Sta = CC(C)C[C@H](N)[C@@H](O)CC(=O)O; PEG4 = NCCOCCOCCOCCOCCC(=O)O

biological target: T1, BACE1 (Homo sapiens, UniProt P56817); assay: Cellular Aβ-lowering assay (Aβ40 ELISA of culture supernatant); type: cell-based; conditions: Aβ40 in supernatant of human HEK293 cells stably transfected with human APP wt (APP695); 18-20 hrs incubation; read-out: IC 50
T1 construct: Human HEK293 cells which are stably transfected with a vector expressing a cDNA of the human APP wt gene (APP695); endogenous in cells; host or cells: HEK293 (human), stably transfected with human APP695 wt
Procedure: The compounds were investigated in accordance with the test given hereinafter.
Cellular Aβ-Lowering Assay:
Human HEK293 cells which are stably transfected with a vector expressing a cDNA of the human APP wt gene (APP695) were used to assess the potency of the compounds in a cellular assay. The cells were seeded in 96-well microtiter plates in cell culture medium (Iscove, plus 10% (v/v) fetal bovine serum, glutamine, penicillin/streptomycin) to about 80% confluence and the compounds were added at a 10× concentration in 1/10 volume of medium without FCS containing 8% DMSO (final concentration of DMSO was kept at 0.8% v/v). After 18-20 hrs incubation at 37° C. and 5% CO2 in a humidified incubator the culture supernatant was harvested for the determination of Aβ40 concentrations. 96 well ELISA plates (e.g., Nunc MaxiSorb) were coated with monoclonal antibody which specifically recognize the C-terminal end of Aβ40 (Brockhaus et al., NeuroReport 9; 1481-1486; 1998). After blocking of non-specific binding sites with e.g. 1% BSA and washing, the culture supernatants were added in suitable dilutions together with a horseradish peroxidase-coupled Aβ detection antibody (e.g., antibody 4G8, Senetek, Maryland Heights, Mo.) and incubated for 5 to 7 hrs. Subsequently the wells of the microtiter plate were washed extensively with Tris-buffered saline containing 0.05% Tween 20 and the assay was developed with tetramethylbenzidine/H2O2 in citric acid buffer. After stopping the reaction with one volume 1 N H2SO4 the reaction was measured in an ELISA reader at 450 nm wavelength. The concentrations of Aβ in the culture supernatants were calculated from a standard curve obtained with known amounts of pure Aβ peptide.

T1 sequence (P56817 46-501): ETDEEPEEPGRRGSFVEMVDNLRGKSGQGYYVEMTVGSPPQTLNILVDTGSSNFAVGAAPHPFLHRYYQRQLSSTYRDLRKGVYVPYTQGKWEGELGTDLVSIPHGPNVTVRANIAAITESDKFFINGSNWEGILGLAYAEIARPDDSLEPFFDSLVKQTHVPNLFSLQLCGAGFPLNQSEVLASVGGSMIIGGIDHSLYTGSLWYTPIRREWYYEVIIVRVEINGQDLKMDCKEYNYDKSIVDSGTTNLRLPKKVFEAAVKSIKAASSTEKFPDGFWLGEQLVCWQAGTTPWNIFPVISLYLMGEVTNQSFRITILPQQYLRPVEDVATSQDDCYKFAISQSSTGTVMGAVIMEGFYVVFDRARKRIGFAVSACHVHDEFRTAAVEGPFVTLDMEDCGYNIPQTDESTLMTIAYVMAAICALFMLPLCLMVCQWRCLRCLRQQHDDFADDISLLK

Compound | IC50 [nM]
CC[C@H](C)[C@H](NC(=O)[C@H](Cc1ccccc1)NC(=O)[C@H](Cc1ccc(O)cc1)NC(=O)[C@@H]1CCCN1C(=O)[C@@H](N)Cc1ccc(O)cc1)C(=O)N1CCC[C@H]1C(=O)N[C@@H](CC(C)C)C(=O)NCC(=O)NCC(=O)NCC(=O)NCC(=O)N[C@@H](CCC(=O)O)C(=O)N[C@H](C(=O)N[C@@H](CC(N)=O)C(=O)N[C@@H](CCSC)[C@@H](O)CC(=O)N[C@H](C(=O)N[C@@H](C)C(=O)N[C@@H](CCC(=O)O)C(=O)N[C@H](Cc1ccccc1)C(=O)N[C@@H](CCCCNC(=O)CCC(=O)O[C@H]1CC[C@@]2(C)C(=CC[C@H]3[C@@H]4CC[C@H]([C@H](C)CCCC(C)C)[C@@]4(C)CC[C@@H]32)C1)C(N)=O)C(C)C)C(C)C [Example 24, Tyr-Pro-Tyr-Phe-Ile-Pro-Leu-Gly-Gly-Gly-Gly-Glu-Val-Asn-MetSta-Val-Ala-Glu-DPhe-Lys(Chol)-NH2] | 0.052
CC(C)CCC[C@@H](C)[C@H]1CC[C@H]2[C@@H]3CC=C4C[C@@H](OC(=O)CCC(=O)NCCCC[C@H](NC(=O)[C@H]5CCCN5C(=O)[C@H](CCC(=O)O)NC(=O)[C@H](C)NC(=O)[C@@H](NC(=O)C[C@H](O)[C@H](CC(C)C)NC(=O)[C@H](CC(N)=O)NC(=O)[C@@H](NC(=O)[C@H](CCC(=O)O)NC(=O)CCOCCOCCOCCOCCNC(=O)[C@H](CC(C)C)NC(=O)[C@@H]5CCCN5C(=O)[C@H](CCCCN)NC(=O)[C@H](Cc5ccccc5)NC(=O)[C@H](Cc5ccc(O)cc5)NC(=O)[C@@H]5CCCN5C(=O)[C@@H](N)Cc5ccc(O)cc5)C(C)C)C(C)C)C(N)=O)CC[C@]4(C)[C@H]3CC[C@]12C [Example 34, Tyr-Pro-Tyr-Phe-Lys-Pro-Leu-PEG(4)-Glu-Val-Asn-Sta-Val-Ala-Glu-DPro-Lys(Chol)-NH2] (H-YPYFKPL[PEG4]EVN[Sta]VAE[dP]K(Succinyl(4-O-cholesteryl))-NH2) | 0.0235
CC[C@H](C)[C@H](NC(=O)[C@H](Cc1ccccc1)NC(=O)[C@H](Cc1ccc(O)cc1)NC(=O)[C@@H]1CCCN1C(=O)[C@@H](N)Cc1ccc(O)cc1)C(=O)N1CCC[C@H]1C(=O)N[C@@H](CC(C)C)C(=O)N[C@@H](CCCCN)C(=O)NCC(=O)NCC(=O)N[C@@H](CCC(=O)O)C(=O)N[C@H](C(=O)N[C@@H](CC(N)=O)C(=O)N[C@@H](CC(C)C)[C@@H](O)CC(=O)N[C@H](C(=O)N[C@@H](C)C(=O)N[C@@H](CCC(=O)O)C(=O)N1CCC[C@@H]1C(=O)N[C@@H](CCCCNC(=O)CCC(=O)O[C@H]1CC[C@@]2(C)C(=CC[C@H]3[C@@H]4CC[C@H]([C@H](C)CCCC(C)C)[C@@]4(C)CC[C@@H]32)C1)C(N)=O)C(C)C)C(C)C [Example 40, Tyr-Pro-Tyr-Phe-Ile-Pro-Leu-Lys-Gly-Gly-Glu-Val-Asn-Sta-Val-Ala-Glu-DPro-Lys(Chol)-NH2] | 0.0235
CC[C@H](C)[C@H](NC(=O)[C@H](Cc1ccccc1)NC(=O)[C@H](Cc1ccc(O)cc1)NC(=O)[C@@H]1CCCN1C(=O)[C@@H](N)CCCCN)C(=O)N1CCC[C@H]1C(=O)N[C@@H](CC(C)C)C(=O)NCC(=O)N[C@H](CCCCN)C(=O)NCC(=O)N[C@@H](CCC(=O)O)C(=O)N[C@H](C(=O)N[C@@H](CC(N)=O)C(=O)N[C@@H](CC(C)C)[C@@H](O)CC(=O)N[C@H](C(=O)N[C@@H](C)C(=O)N[C@@H](CCC(=O)O)C(=O)N1CCC[C@@H]1C(=O)N[C@@H](CCCCNC(=O)CCC(=O)O[C@H]1CC[C@@]2(C)C(=CC[C@H]3[C@@H]4CC[C@H]([C@H](C)CCCC(C)C)[C@@]4(C)CC[C@@H]32)C1)C(N)=O)C(C)C)C(C)C [Example 48, Lys-Pro-Tyr-Phe-Ile-Pro-Leu-Gly-DLys-Gly-Glu-Val-Asn-Sta-Val-Ala-Glu-DPro-Lys(Chol′estert)-NH2] (H-KPYFIPLG[dK]GEVN[Sta]VAE[dP]K(Succinyl(4-O-cholesteryl))-NH2) | 0.02
CC[C@H](C)[C@H](NC(=O)[C@H](Cc1ccccc1)NC(=O)[C@H](Cc1ccc(O)cc1)NC(=O)[C@@H]1CCCN1C(=O)[C@@H](N)Cc1ccc(O)cc1)C(=O)N1CCC[C@H]1C(=O)N[C@@H](CC(C)C)C(=O)NCC(=O)N[C@H](C)C(=O)NCC(=O)N[C@@H](CCC(=O)O)C(=O)N[C@H](C(=O)N[C@@H](CC(N)=O)C(=O)N[C@@H](CC(C)C)[C@@H](O)CC(=O)N[C@H](C(=O)N[C@@H](C)C(=O)N[C@@H](CCC(=O)O)C(=O)N1CCC[C@@H]1C(=O)N[C@@H](CCCCNC(=O)CCC(=O)O[C@H]1CC[C@@]2(C)C(=CC[C@H]3[C@@H]4CC[C@H]([C@H](C)CCCC(C)C)[C@@]4(C)CC[C@@H]32)C1)C(N)=O)C(C)C)C(C)C [Example 53, Tyr-Pro-Tyr-Phe-Ile-Pro-Leu-Gly-DAla-Gly-Glu-Val-Asn-Sta-Val-Ala-Glu-DPro-Lys(Chol′ester′)-NH2] | 0.02
CC[C@H](C)[C@H](NC(=O)[C@H](Cc1ccccc1)NC(=O)[C@H](Cc1ccc(O)cc1)NC(=O)[C@@H]1CCCN1C(=O)[C@@H](N)Cc1ccc(O)cc1)C(=O)N1CCC[C@H]1C(=O)N[C@@H](CC(C)C)C(=O)N[C@@H](CO)C(=O)NCC(=O)NCC(=O)N[C@@H](CCC(=O)O)C(=O)N[C@H](C(=O)N[C@@H](CC(N)=O)C(=O)N[C@@H](CC(C)C)[C@@H](O)CC(=O)N[C@H](C(=O)N[C@@H](C)C(=O)N[C@@H](CCC(=O)O)C(=O)N1CCC[C@@H]1C(=O)N[C@@H](CCCCNC(=O)CCC(=O)O[C@H]1CC[C@@]2(C)C(=CC[C@H]3[C@@H]4CC[C@H]([C@H](C)CCCC(C)C)[C@@]4(C)CC[C@@H]32)C1)C(N)=O)C(C)C)C(C)C [Example 54, Tyr-Pro-Tyr-Phe-Ile-Pro-Leu-Ser-Gly-Gly-Glu-Val-Asn-Sta-Val-Ala-Glu-DPro-Lys(Chol′ester′)-NH2] (H-YPYFIPLSGGEVN[Sta]VAE[dP]K(Succinyl(4-O-cholesteryl))-NH2) | 0.052
